Data set [1] has as its system 22Rv1 xenograft tumor. Nature of the data set: Antitumor efficacy in 22Rv1 xenograft mice. It counts as in vivo, BALB/c nude mice. To be noted: dose study, intravenous every 48 h, five cycles, 20 days.
The target in data set [2] is CRBN protein (Homo sapiens, UniProt Q96SW2). Nature of the data set: MST binding affinity, Psa-AR and CRBN protein. To be noted: RED-NHS-labeled CRBN 400 nM, PBS-T, 22 °C, n = 3. The source says:
Fig. 3 Polynary nanocomposite (AR: Psa-AR: CRBN) formation. a Dose‒response curve for the binding interaction between Psa-AR and the AR protein; n = 3 per group. b Dose‒response curve for the binding interaction between Psa-AR and the CRBN protein; n = 3 per group. c Dose‒response curve for the binding interaction between the binary complex (Psa-AR: AR) and CRBN, n = 3 per group. d In vitro Psa-AR self-assembly, protein binding and degradation. e Representative 22Rv1 cell CLSM images of FITC-labeled Psa-AR assembly (green channel) interacting with HSP90 (red channel) and its colocalization analysis (1–1’). […] Scale bar: 10 μm.
MST (NanoTemper Technologies GmbH, Munich, Germany) was utilized to evaluate the binding affinity between Psa-AR and RED-NHS-labeled PSMA, AR, or CRBN proteins. The PSMA, AR, and CRBN proteins were labeled with the Protein Labeling Kit RED-NHS 2nd Generation (Amine Reactive). RED-PSMA, RED-AR, and RED-CRBN proteins were diluted to a final concentration of 400 nM with PBS-T buffer (0.05% Tween 20), where the fluorescence signals satisfied the typical detection limit of the Monolith NT.115 instrument (NanoTemper Technologies). The binding affinity between Psa-AR and the RED-NHS-labeled AR protein was assessed. […] Then, 10 µL of RED-CRBN was added to each sample to achieve a final concentration of 400 nM. […] The data were analyzed by NanoTemper analysis software.

Data set [3] relates to AR-V7. The data set is described as follows: Western blot AR-V7 degradation in 22Rv1 cells. It counts as cell-based. To be noted: 22Rv1, 20 μM, 48 h. The procedure: All uncropped blots are presented in Supplementary Fig. 26. j, k Representative 22Rv1 cell CLSM images of the degradation of AR after incubation with FITC-labeled Psa-AR for 12 h and quantitative analysis, n = 3 per group. Scale bar: 10 μm. l, m Representative 22Rv1 cell CLSM images of the degradation of HSP90 after incubation with FITC-labeled Psa-AR for 12 h and quantitative analysis, n = 3 per group. Scale bar: 10 μm. n AR-V7 expression in 22Rv1 cells after treatment with PBS, P-AR (20 μM), Psa-AR (20 μM) or Psa-AR (20 μM) combined with MG132 (2 μM) for 48 h, as determined by western blotting. β-Actin was used as an internal reference. o Results of apoptosis in 22Rv1 cells treated with PBS, P-AR (20 μM), or Psa-AR (20 μM) for 48 h, as detected by flow cytometry.
The pretreated cells were resuspended in lysis buffer containing 50 mM Tris-HCl (pH 8.0), 150 mM NaCl, 1% (v/v) Triton X-100, and protease inhibitors. The protein concentration was determined via a BCA kit (Applygen). Each sample ([…]) was subjected to SDS‒PAGE and then transferred to a PVDF membrane. The blots were blocked in 5% (wt/v) blocking buffer. After washing three times with TBST buffer (10 mM TBS solution containing 0.1% (v/v) Tween-20), the blots were incubated with primary antibodies at 4 °C on a shaker for 16 h. […]
Background: In western blotting, separated proteins are transferred to a membrane and probed.

Data set [4] in a line: In vivo biocompatibility in healthy mice. To be noted: healthy BALB/c mice. Here is the method: Fig. 7 In vivo antitumor efficacy of Psa-AR. a Schematic illustration of the tumor inoculation and treatment protocol for 22Rv1 xenograft mice. (n = 6 per group) b Observation of the tumor inhibitory effect on 22Rv1 xenograft mice in PBS, enzalutamide, pimitespib, Enza, Pimi, and Psa-AR (30 mg/kg in 200 μL of PBS) over 20 days of treatment. (Enza, Pimi: Combination therapy with enzalutamide (AR antagonist) and Pimitespib (HSP90 inhibitor)). c Kaplan‒Meier survival curves of 22Rv1 xenograft mice in different groups over 20 days of treatment. d Changes in the body weights of 22Rv1 xenograft mice in different groups over 20 days of treatment. e Terminal deoxynucleotidyl transferase (TdT) dUTP nick-end labeling (TUNEL) staining of tumors after treatment with PBS, enzalutamide, pimitespib, ENZ, Pimi or Psa-AR (30 mg/kg in 200 μL of PBS) for 20 days. Scale bar: 50 μm. f Hematoxylin‒eosin (H&E) staining of the main organs after treatment with PBS or Psa-AR (30 mg/kg in 200 μL of PBS) for 24 h. Scale bar: 50 μm. g–j Blood biochemistry data, including ALT, AST, ALP, TP, ALB, GLOB, BUN, and CRE levels, of the mice after treatment with Psa-AR (20 mg/kg in 200 μL of PBS) for 1 day or 14 days (n = 3 per group). p values were determined via one-way ANOVA followed by post hoc Tukey’s test. The data are presented as the means ± SDs
To thoroughly evaluate the in vivo biocompatibility of the Psa-AR degradation system, we performed comprehensive toxicological assessments in healthy BALB/c mice. At 24 h post-administration of either PBS or Psa-AR (30 mg/kg, n = 3 per group), we collected major organs (heart, liver, spleen, lungs, and kidneys) along with serum samples for histopathological and biochemical analysis. […] These comprehensive biosafety evaluations confirmed that the Psa-AR system maintains exceptional biocompatibility, with no acute toxicity observed in vital organs or systemic metabolic pathways. The combined histopathological and biochemical evidence strongly supports the clinical translatability of this targeted protein degradation platform.

For orientation: Kd means the constant that tells how readily two partners part at equilibrium. High values mean weaker binding, low ones tighter binding.

Structures are written as SMILES. Numbered stars: 1 amine (or outer) side, 2 acyl side, 3 side chain; on linkers, the order of the positions; unused ones are H or OH. Square brackets hold non-standard residues; d marks the D form. Peptide text beside a SMILES is read from it. * marks the point of attachment. X2 = CC1(C)C(=O)N(c2ccc(C#N)c(C(F)(F)F)c2)C(=S)N1c1ccc(C(=O)*)c(F)c1; X1 = O=C1CCC(N2C(=O)c3cccc(N(CC(=O)[*:2])[*:1])c3C2=O)C(=O)N1; EuK = O=C(O)CC[C@H](NC(=O)N[C@@H](CCCCN*)C(=O)O)C(=O)O; 2Nal = N[C@@H](Cc1ccc2ccccc2c1)C(=O)O

Sequence of CRBN protein (Q96SW2 whole entry): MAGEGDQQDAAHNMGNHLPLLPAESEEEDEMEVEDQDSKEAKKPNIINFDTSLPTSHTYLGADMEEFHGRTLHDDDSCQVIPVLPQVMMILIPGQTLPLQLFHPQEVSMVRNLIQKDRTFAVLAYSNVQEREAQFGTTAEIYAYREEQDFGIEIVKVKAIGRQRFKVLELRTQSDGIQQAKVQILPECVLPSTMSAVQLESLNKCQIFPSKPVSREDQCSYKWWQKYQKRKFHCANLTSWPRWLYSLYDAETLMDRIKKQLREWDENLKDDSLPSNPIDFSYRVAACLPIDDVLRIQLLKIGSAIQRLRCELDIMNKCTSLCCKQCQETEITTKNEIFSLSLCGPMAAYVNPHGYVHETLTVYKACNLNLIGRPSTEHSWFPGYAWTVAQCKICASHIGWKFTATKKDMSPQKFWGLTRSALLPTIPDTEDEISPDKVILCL

As to `CC1(C)C(=O)N(c2ccc(C#N)c(C(F)(F)F)c2)C(=S)N1c1ccc(C(=O)NCCCC[C@H](NC(=O)CNc2cccc3c2C(=O)N(C2CCC(=O)NC2=O)C3=O)C(=O)N[C@@H](CS)C(=O)N[C@@H](CCC(N)=O)C(=O)N[C@@H](Cc2ccc(O)cc2)C(=O)N[C@@H](CC(N)=O)C(=O)N[C@@H](CCC(N)=O)C(=O)N[C@@H](Cc2ccc(O)cc2)C(=O)N[C@@H](Cc2ccc(O)cc2)C(=O)N[C@@H](Cc2ccc3ccccc3c2)C(=O)NCCCC[C@H](NC(=O)N[C@@H](CCC(=O)O)C(=O)O)C(=O)O)c(F)c1` (stereo partly drawn) [Psa-AR] (H-[X1]K(X2)CQYNQYY[2Nal]-EuK), the “mean tumor volume at 10 mg/kg” value in data set [1] is given as 220 mm^3. In data set [2], this compound had a Kd of 1060 nM. Further, in data set [3], the “greater AR-V7 degradation than P-AR” value was 66%. The “routine blood analysis (WBC, NEU, LYM, RBC, PLT, HGB, MPV)” value in data set [4] is “no obvious changes were detected”. Moreover, in data set [4] (30 mg/kg, 24 h, n = 3), the “serum biochemistry (ALT, AST, ALP, TP, ALB, GLOB, BUN, CRE) versus PBS” value is “not significantly different between the groups”. Further, the “H&E histopathology of major organs (heart, liver, spleen, lungs, kidneys)” value in data set [4] (30 mg/kg, 24 h post-administration, n = 3) is reported as “no observable pathological changes”.

The values are drawn from article PMC12521527, “In vivo self-assembled nano-PROTAC for the dual degradation of AR and HSP90 to overcome castration-resistant prostate cancer resistance” (Signal Transduction and Targeted Therapy, 2025).
